Reference: the supplement of paper PMC13207355
Where a name gives a salt, the structure may show the parent alone.

Key:
Details in all cases: exposure time: 72 h
E13 [1] = patient-derived glioblastoma stem cells of classical subtype; test: surviving fraction (nuclei count normalised to DMSO); higher = more cells surviving (less toxic)
E21 [2] = patient-derived glioblastoma stem cells of mesenchymal subtype; test: as above
E28 [3] = patient-derived glioblastoma stem cells of classical subtype; test: as above
E31 [4] = patient-derived glioblastoma stem cells of proneural subtype; test: as above
E34 [5] = patient-derived glioblastoma stem cells of proneural subtype; test: as above
E57 [6] = patient-derived glioblastoma stem cells of mesenchymal subtype; test: as above
FT3469 [7] = normal neural stem cell line; test: as above
E13 [8] = test: phenotypic distance (Euclidean, principal components) from DMSO controls (arbitrary units); higher = stronger morphological change
E21 [9] = test: as above
E28 [10] = test: as above
E31 [11] = test: as above
E34 [12] = test: as above
E57 [13] = test: as above
FT3469 [14] = test: as above
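Wherever phenotypic distance (Euclidean, principal components) from DMSO controls is given: cell Painting imaging in 384-well plates, CellProfiler features reduced to at least 20 principal components, Euclidean distance versus same-plate DMSO vehicle wells (0.1% v/v), median over six images per well.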
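Wherever surviving fraction (nuclei count normalised to DMSO) is given: nuclei counted by high-content imaging of Hoechst-stained cells in laminin-coated 384-well plates, relative to 0.1% DMSO vehicle wells, with staurosporine as cell-death control.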

CC[C@H]1CN2CCc3cc(OC)c(OC)cc3[C@@H]2C[C@@H]1C[C@H]1NCCc2cc(OC)c(OC)cc21 [Emetine dihydrochloride hydrate]
Details	phenotypic distance	surviving fraction
E13 [1], 4.1 nM	–	0.771
E13 [1], 12.3 nM	–	0.923
E13 [1], 37 nM	–	0.769
E13 [1], 111.1 nM	–	0.481
E13 [1], 333.3 nM	–	0.319
E13 [1], 1000 nM	–	0.241
E13 [1], 3000 nM	–	0.2
E13 [8], 4.1 nM	1.31	–
E13 [8], 12.3 nM	0.882	–
E13 [8], 37 nM	1.91	–
E13 [8], 111.1 nM	4.48	–
E13 [8], 333.3 nM	4.34	–
E13 [8], 1000 nM	5.43	–
E13 [8], 3000 nM	6.58	–
E21 [2], 4.1 nM	–	0.907
E21 [2], 12.3 nM	–	0.921
E21 [2], 37 nM	–	0.816
E21 [2], 111.1 nM	–	0.347
E21 [2], 333.3 nM	–	0.223
E21 [2], 1000 nM	–	0.153
E21 [2], 3000 nM	–	0.173
E21 [9], 4.1 nM	1.08	–
E21 [9], 12.3 nM	0.979	–
E21 [9], 37 nM	0.851	–
E21 [9], 111.1 nM	6.33	–
E21 [9], 333.3 nM	4.77	–
E21 [9], 1000 nM	3.91	–
E21 [9], 3000 nM	3.66	–
E28 [3], 4.1 nM	–	0.969
E28 [3], 12.3 nM	–	1.05
E28 [3], 37 nM	–	0.901
E28 [3], 111.1 nM	–	0.385
E28 [3], 333.3 nM	–	0.258
E28 [3], 1000 nM	–	0.315
E28 [3], 3000 nM	–	0.3
E28 [10], 4.1 nM	0.561	–
E28 [10], 12.3 nM	0.727	–
E28 [10], 37 nM	1.13	–
E28 [10], 111.1 nM	2.77	–
E28 [10], 333.3 nM	3.25	–
E28 [10], 1000 nM	3.1	–
E28 [10], 3000 nM	3.67	–
E31 [4], 4.1 nM	–	0.927
E31 [4], 12.3 nM	–	0.842
E31 [4], 37 nM	–	0.667
E31 [4], 111.1 nM	–	0.313
E31 [4], 333.3 nM	–	0.143
E31 [4], 1000 nM	–	0.179
E31 [4], 3000 nM	–	0.101
E31 [11], 4.1 nM	1.22	–
E31 [11], 12.3 nM	1.2	–
E31 [11], 37 nM	2.2	–
E31 [11], 111.1 nM	5.26	–
E31 [11], 333.3 nM	5.72	–
E31 [11], 1000 nM	4.54	–
E31 [11], 3000 nM	5.99	–
E34 [5], 4.1 nM	–	0.908
E34 [5], 12.3 nM	–	0.885
E34 [5], 37 nM	–	0.818
E34 [5], 111.1 nM	–	0.497
E34 [5], 333.3 nM	–	0.404
E34 [5], 1000 nM	–	0.387
E34 [5], 3000 nM	–	0.426
E34 [12], 4.1 nM	0.73	–
E34 [12], 12.3 nM	0.706	–
E34 [12], 37 nM	0.904	–
E34 [12], 111.1 nM	2.93	–
E34 [12], 333.3 nM	3.91	–
E34 [12], 1000 nM	4.94	–
E34 [12], 3000 nM	4.59	–
E57 [6], 4.1 nM	–	0.975
E57 [6], 12.3 nM	–	0.918
E57 [6], 37 nM	–	0.84
E57 [6], 111.1 nM	–	0.354
E57 [6], 333.3 nM	–	0.157
E57 [6], 1000 nM	–	0.173
E57 [6], 3000 nM	–	0.14
E57 [13], 4.1 nM	1.02	–
E57 [13], 12.3 nM	1.01	–
E57 [13], 37 nM	0.848	–
E57 [13], 111.1 nM	5.15	–
E57 [13], 333.3 nM	6.55	–
E57 [13], 1000 nM	6.5	–
E57 [13], 3000 nM	6.32	–
FT3469 [7], 4.1 nM	–	1.12
FT3469 [7], 12.3 nM	–	1.05
FT3469 [7], 37 nM	–	0.997
FT3469 [7], 111.1 nM	–	0.676
FT3469 [7], 333.3 nM	–	0.511
FT3469 [7], 1000 nM	–	0.492
FT3469 [7], 3000 nM	–	0.535
FT3469 [14], 4.1 nM	0.688	–
FT3469 [14], 12.3 nM	0.903	–
FT3469 [14], 37 nM	0.792	–
FT3469 [14], 111.1 nM	3.79	–
FT3469 [14], 333.3 nM	3.87	–
FT3469 [14], 1000 nM	3.19	–
FT3469 [14], 3000 nM	3.42	–

CCn1cc(C(=O)O)c(=O)c2cc(F)c(N3CCNCC3)nc21 [Enoxacin]
Details	phenotypic distance	surviving fraction
E13 [1], 4.1 nM	–	0.98
E13 [1], 12.3 nM	–	1.08
E13 [1], 37 nM	–	0.82
E13 [1], 111.1 nM	–	1.01
E13 [1], 333.3 nM	–	0.975
E13 [1], 1000 nM	–	0.96
E13 [1], 3000 nM	–	1.05
E13 [8], 4.1 nM	0.646	–
E13 [8], 12.3 nM	0.69	–
E13 [8], 37 nM	0.539	–
E13 [8], 111.1 nM	0.399	–
E13 [8], 333.3 nM	0.457	–
E13 [8], 1000 nM	0.745	–
E13 [8], 3000 nM	0.954	–
E21 [2], 4.1 nM	–	0.976
E21 [2], 12.3 nM	–	0.98
E21 [2], 37 nM	–	0.929
E21 [2], 111.1 nM	–	0.973
E21 [2], 333.3 nM	–	0.975
E21 [2], 1000 nM	–	0.987
E21 [2], 3000 nM	–	0.968
E21 [9], 4.1 nM	0.648	–
E21 [9], 12.3 nM	0.762	–
E21 [9], 37 nM	0.7	–
E21 [9], 111.1 nM	0.554	–
E21 [9], 333.3 nM	0.603	–
E21 [9], 1000 nM	0.823	–
E21 [9], 3000 nM	0.597	–
E28 [3], 4.1 nM	–	0.921
E28 [3], 12.3 nM	–	1.01
E28 [3], 37 nM	–	0.969
E28 [3], 111.1 nM	–	1.22
E28 [3], 333.3 nM	–	0.982
E28 [3], 1000 nM	–	0.962
E28 [3], 3000 nM	–	0.83
E28 [10], 4.1 nM	0.627	–
E28 [10], 12.3 nM	0.793	–
E28 [10], 37 nM	0.478	–
E28 [10], 111.1 nM	0.94	–
E28 [10], 333.3 nM	0.292	–
E28 [10], 1000 nM	0.666	–
E28 [10], 3000 nM	0.546	–
E31 [4], 4.1 nM	–	0.836
E31 [4], 12.3 nM	–	1
E31 [4], 37 nM	–	1.09
E31 [4], 111.1 nM	–	0.95
E31 [4], 333.3 nM	–	1.02
E31 [4], 1000 nM	–	1.19
E31 [4], 3000 nM	–	0.881
E31 [11], 4.1 nM	0.556	–
E31 [11], 12.3 nM	0.523	–
E31 [11], 37 nM	0.553	–
E31 [11], 111.1 nM	0.528	–
E31 [11], 333.3 nM	0.401	–
E31 [11], 1000 nM	0.654	–
E31 [11], 3000 nM	0.714	–
E34 [5], 4.1 nM	–	1.01
E34 [5], 12.3 nM	–	1.07
E34 [5], 37 nM	–	1.09
E34 [5], 111.1 nM	–	0.99
E34 [5], 333.3 nM	–	1.06
E34 [5], 1000 nM	–	1.1
E34 [5], 3000 nM	–	0.885
E34 [12], 4.1 nM	0.518	–
E34 [12], 12.3 nM	0.658	–
E34 [12], 37 nM	0.667	–
E34 [12], 111.1 nM	0.731	–
E34 [12], 333.3 nM	0.276	–
E34 [12], 1000 nM	0.843	–
E34 [12], 3000 nM	1.19	–
E57 [6], 4.1 nM	–	1
E57 [6], 12.3 nM	–	1.07
E57 [6], 37 nM	–	1.1
E57 [6], 111.1 nM	–	1.11
E57 [6], 333.3 nM	–	1.06
E57 [6], 1000 nM	–	0.938
E57 [6], 3000 nM	–	0.959
E57 [13], 4.1 nM	0.422	–
E57 [13], 12.3 nM	0.677	–
E57 [13], 37 nM	0.541	–
E57 [13], 111.1 nM	0.821	–
E57 [13], 333.3 nM	0.482	–
E57 [13], 1000 nM	0.537	–
E57 [13], 3000 nM	0.807	–
FT3469 [7], 4.1 nM	–	0.928
FT3469 [7], 12.3 nM	–	0.931
FT3469 [7], 37 nM	–	0.867
FT3469 [7], 111.1 nM	–	1.02
FT3469 [7], 333.3 nM	–	1.06
FT3469 [7], 1000 nM	–	0.928
FT3469 [7], 3000 nM	–	0.971
FT3469 [14], 4.1 nM	0.513	–
FT3469 [14], 12.3 nM	0.577	–
FT3469 [14], 37 nM	0.677	–
FT3469 [14], 111.1 nM	0.87	–
FT3469 [14], 333.3 nM	0.641	–
FT3469 [14], 1000 nM	0.47	–
FT3469 [14], 3000 nM	0.868	–
